{"source": "patent US10435388B2", "about": "“Selective inhibitors of clinically important mutants of the EGFR tyrosine kinase” (CS PHARMATECH LIMITED, priority 2016, dated 2019)", "key": {"EGFR_T790M/L858R": {"biological_target": "EGFR_T790M/L858R (Homo sapiens, UniProt P00533, L858R/T790M)", "sequence (P00533 25-1210 T790M/L858R)": "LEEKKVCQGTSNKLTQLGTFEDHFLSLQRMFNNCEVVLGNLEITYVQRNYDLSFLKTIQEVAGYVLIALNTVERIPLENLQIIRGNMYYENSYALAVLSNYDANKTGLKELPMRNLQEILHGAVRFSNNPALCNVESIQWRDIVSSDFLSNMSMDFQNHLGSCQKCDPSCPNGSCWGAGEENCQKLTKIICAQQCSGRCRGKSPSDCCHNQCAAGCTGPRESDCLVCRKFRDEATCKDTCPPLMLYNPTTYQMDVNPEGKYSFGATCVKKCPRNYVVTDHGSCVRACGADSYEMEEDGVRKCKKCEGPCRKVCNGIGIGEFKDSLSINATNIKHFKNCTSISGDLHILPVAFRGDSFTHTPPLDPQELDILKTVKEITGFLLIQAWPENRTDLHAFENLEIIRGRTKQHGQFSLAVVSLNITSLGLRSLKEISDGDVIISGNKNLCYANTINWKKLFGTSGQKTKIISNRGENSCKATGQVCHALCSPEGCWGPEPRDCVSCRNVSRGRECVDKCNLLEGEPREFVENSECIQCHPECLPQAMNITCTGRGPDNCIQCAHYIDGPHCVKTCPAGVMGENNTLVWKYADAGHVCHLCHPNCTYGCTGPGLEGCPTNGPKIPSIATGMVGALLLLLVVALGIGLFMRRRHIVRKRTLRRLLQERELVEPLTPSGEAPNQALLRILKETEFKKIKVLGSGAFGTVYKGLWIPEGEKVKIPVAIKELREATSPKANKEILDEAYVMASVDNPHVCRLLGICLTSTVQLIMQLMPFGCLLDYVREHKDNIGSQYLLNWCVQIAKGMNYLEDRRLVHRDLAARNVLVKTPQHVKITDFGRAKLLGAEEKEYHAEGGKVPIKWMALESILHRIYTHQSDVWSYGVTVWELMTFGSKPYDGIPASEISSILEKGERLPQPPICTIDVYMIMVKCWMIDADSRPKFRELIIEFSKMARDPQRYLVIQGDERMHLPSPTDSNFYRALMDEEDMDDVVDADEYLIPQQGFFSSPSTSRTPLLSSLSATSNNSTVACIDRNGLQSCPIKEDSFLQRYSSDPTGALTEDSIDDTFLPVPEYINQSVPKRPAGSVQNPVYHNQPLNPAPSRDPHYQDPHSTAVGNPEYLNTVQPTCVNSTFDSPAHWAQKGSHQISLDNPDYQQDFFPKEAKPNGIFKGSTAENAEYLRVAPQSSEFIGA", "assay": "Enzyme assay, IC50 for double-mutant EGFR (EGFR_T790M/L858R) (Caliper)", "type": "biochemical", "settings": "enzyme phosphorylation assay; read-out: EGFR_L858R/T790 IC50", "procedure": "Using the same technique as described in the previous paragraph, various mutated forms of the epidermal growth factor receptor may be isolated from appropriate cell lines which contain them. For example, the EGFR de1746-750 mutant protein may be extracted from PC-9 cells, and the L858R/T790M double mutant EGFR protein may be isolated from H1975 cells.\nDetermination of IC50 Values for Double-Mutant EGFR (EGFR_T790M/L858R)\nDilute all compounds to 500 μM stock solutions in 100% DMSO and make a serial of 4-fold dilution for 10 does. “Max” and “Min” control contain 100% DMSO. “Max” stands for […], “Min” stands for low control without compounds. Transfer 10 μl of compounds to 90 μl of 1× kinase base buffer to make intermediate dilution. […] Incubate at RT for 1 hr and 25 μl stop buffer to end up reaction. Collect conversion data from Caliper and conversion data from Caliper program. Fit the data in XLfit to obtain IC50 values."}, "Wt EGFR": {"biological_target": "T1, Wt EGFR (Homo sapiens, UniProt P00533)", "T1 construct": "isolated from A431 human epidermoid carcinoma cells which overexpress EGF receptor; endogenous in cells; host or cells: A431 human epidermoid carcinoma cells (receptor purified on wheat germ agglutinin sepharose)", "T1 sequence (P00533 25-1210)": "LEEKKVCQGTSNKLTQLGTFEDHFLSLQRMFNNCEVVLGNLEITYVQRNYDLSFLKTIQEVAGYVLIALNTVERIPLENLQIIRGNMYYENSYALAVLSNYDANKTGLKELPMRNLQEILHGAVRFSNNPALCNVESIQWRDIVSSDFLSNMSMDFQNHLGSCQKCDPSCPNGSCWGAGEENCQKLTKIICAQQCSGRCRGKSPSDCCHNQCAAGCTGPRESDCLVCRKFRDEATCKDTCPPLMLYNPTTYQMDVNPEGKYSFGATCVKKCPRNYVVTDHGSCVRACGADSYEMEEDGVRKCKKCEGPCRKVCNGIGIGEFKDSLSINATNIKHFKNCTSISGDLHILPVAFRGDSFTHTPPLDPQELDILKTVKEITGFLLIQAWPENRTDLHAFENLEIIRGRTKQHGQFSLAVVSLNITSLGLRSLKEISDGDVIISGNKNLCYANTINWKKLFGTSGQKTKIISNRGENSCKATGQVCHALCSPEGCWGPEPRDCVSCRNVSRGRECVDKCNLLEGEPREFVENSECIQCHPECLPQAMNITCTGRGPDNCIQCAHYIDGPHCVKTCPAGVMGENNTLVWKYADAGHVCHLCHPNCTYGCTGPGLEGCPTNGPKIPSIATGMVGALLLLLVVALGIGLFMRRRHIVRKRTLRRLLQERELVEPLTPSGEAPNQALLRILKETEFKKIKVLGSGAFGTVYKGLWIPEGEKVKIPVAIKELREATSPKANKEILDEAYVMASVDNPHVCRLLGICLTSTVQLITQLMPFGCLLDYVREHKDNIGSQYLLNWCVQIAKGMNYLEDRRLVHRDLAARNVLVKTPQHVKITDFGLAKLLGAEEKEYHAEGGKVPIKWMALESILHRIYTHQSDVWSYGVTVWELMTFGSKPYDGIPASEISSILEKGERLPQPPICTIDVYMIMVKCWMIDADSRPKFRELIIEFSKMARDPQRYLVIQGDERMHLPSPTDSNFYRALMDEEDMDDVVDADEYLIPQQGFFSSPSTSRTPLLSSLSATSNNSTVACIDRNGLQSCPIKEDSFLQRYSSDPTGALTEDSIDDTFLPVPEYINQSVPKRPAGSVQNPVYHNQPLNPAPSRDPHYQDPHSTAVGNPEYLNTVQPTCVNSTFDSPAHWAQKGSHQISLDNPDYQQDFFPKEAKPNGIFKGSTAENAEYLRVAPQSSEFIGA", "assay": "Enzyme assay, IC50 for wt EGFR (Caliper)", "type": "biochemical", "settings": "enzyme phosphorylation assay; read-out: EGFR_WT IC50", "procedure": "Purification of Epidermal Growth Factor Receptor Tyrosine Kinase Human EGF receptor tyrosine kinase was isolated from A431 human epidermoid carcinoma cells which overexpress EGF receptor by the following methods. Cells were grown in roller bottles in 50% Delbuco's Modified Eagle and 50% HAM F-12 nutrient media (Gibco) containing 10% fetal calf serum. Approximately 10^9 cells were lysed in two volumes of buffer containing 20 mM 2-(4N-[2-hydroxyethyl]piperazin-1-yl)ethanesulfonic acid (hepes), pH 7.4, 5 mM ethylene glycol bis(2-aminoethyl ether) N,N,N′,N′-tetraacetic acid, 1% Triton X-1OO, 10% glycerol. 0.1 mM sodium orthovanadate, 5 mM sodium fluoride, 4 mM pyrophosphate, 4 mM benzamide, 1 mM dithiothreitol, 80 μg/mL aprotinin, 40 μg/mL leupeptin and 1 mM phenylmethylsulfonyl fluoride. After centrifugation at 25,000×g for 10 minutes, the supernatant was equilibrated for 2 h at […], with 10 mL of wheat germ agglutinin sepharose that was previously equilibrated with 50 mM Hepes, 10% glycerol, 0.1% Triton X-100 and 150 mM NaCl, pH 7.5, (equilibration buffer). Contaminating proteins were washed from the resin with 1M NaCl in equilibration buffer, and the enzyme was eluted with 0.5M N-acetyl-1-D-glucosamine in equilibration buffer, followed by 1 mM urea. The enzyme was eluted with 0.1 mg/ml EGF.\nDetermination of IC50 Values for Wt EGFR\nDilute all compounds to 500 μM stock solutions in 100% DMSO and make a serial of 4-fold dilution for 10 does. “Max” and “Min” control contain 100% DMSO. “Max” stands for […], “Min” stands for low control without compounds. Transfer 10 μl of compounds to 90 μl of Ix kinase base buffer to make intermediate dilution. Transfer 5 μl of intermediate dilution compounds to the 384-well assay plate, then 10 μl 2.5× enzyme buffer containing (20 nM EGFR, 5 mM DTT, 1× kinase base buffer) were added to assay plate. […] Incubate at RT for 1 hr and 25 μl stop buffer to end up reaction. Collect conversion data from Caliper and conversion data from Caliper program. Fit the data in XLfit to obtain IC50 values."}, "[1]": {"test_system": "NCI-H1975 cells (EGFR L858R/T790 double mutant)", "assay": "H1975 inhibition assay (cell proliferation), Method A", "type": "cell-based", "settings": "cellular proliferation, NCI-H1975 cells, 72 h, CellTiter-Glo (Table 1); read-out: NCI-H1975 IC50 (nM) DM"}, "[2]": {"test_system": "p-EGFR in PC9 cells (Exon 19 deletion EGFR)", "assay": "Exon19 deletion EGFR (activating single mutant) PC-9 cellular autophosphorylation assay", "type": "cell-based, human", "settings": "2 h treatment, ELISA"}, "INSR": {"biological_target": "T2, INSR (Homo sapiens, UniProt P06213)", "T2 construct": "purchased CARNA BIOSCIENCE 08-142", "T2 sequence (P06213 989-1382 limits assumed)": "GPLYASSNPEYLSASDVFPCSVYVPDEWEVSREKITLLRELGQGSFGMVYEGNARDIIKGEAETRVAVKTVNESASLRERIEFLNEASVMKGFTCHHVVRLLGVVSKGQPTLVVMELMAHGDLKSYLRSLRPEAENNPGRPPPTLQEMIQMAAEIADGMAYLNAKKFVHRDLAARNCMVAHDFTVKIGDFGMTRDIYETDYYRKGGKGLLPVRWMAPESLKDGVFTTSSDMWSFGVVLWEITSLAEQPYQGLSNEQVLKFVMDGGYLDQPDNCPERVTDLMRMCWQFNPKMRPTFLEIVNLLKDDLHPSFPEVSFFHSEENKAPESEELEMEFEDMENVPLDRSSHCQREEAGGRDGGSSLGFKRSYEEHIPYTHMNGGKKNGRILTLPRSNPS", "assay": "INSR inhibition assay (Caliper EZ Reader)", "type": "biochemical", "settings": "enzyme assay"}}, "note": "Several values for one entry are separate records, joined by “and”; a condition that tells them apart may be missing. Equal values may be shown once."}
{"smiles": "C=CC(=O)Nc1cc(Nc2nccc(-c3c[nH]c4ccccc34)n2)c(OC)cc1N(C)CCN(C)C", "note": "[AZD-5104]", "values": [{"measurement": "IC50", "setting": "EGFR_T790M/L858R", "value": 1.5, "unit": "nM"}, {"measurement": "IC50", "setting": "Wt EGFR", "value": 1.6, "unit": "nM"}, {"measurement": "IC50", "setting": "[1]", "value": 2.2, "unit": "nM"}, {"measurement": "IC50", "setting": "[2]", "value": "2.91 nM and 2.4 nM"}, {"measurement": "IC50", "setting": "INSR", "value": "49.5 nM and 72.2 nM"}]}
